Series [1] concerns NCI 60 cancer cells. Nature of the series: NCI 60 cell five-dose screen. The format is cell-based, human. The settings on record: NCI 60 cell five-dose screen, FIG. 5. The text has this: FIG. 5 provides the concentrations (nanomole/liter) required to inhibit by 50% growth of cancer cells (GI50) as measured with the National Cancer Institute (NCI) 60 cell five-dose screen assay.
The methodology and data analyses are described in detail at: dtp.cancer.gov/discovery_development/nci-60/methodology.

A short description of series [2]: Stability in human serum (HPLC). The format is in vitro ADME. How it is done:
4 (370 KBq-740 kBq) in 20 μL 25% EtOH/PB (10 mM PB, pH 6.1) was added to the solution of human serum (1980 μL). The mixture was briefly vortexed and kept up to 19 hours at ambient temperature or in the cell culture incubator (37° C., 5% CO2). At selected times, a 0.5-mL aliquot of the incubated mixture was withdrawn and analyzed by HPLC.
An aliquot of the incubation mixture (0.5 mL) was treated with MeCN (0.5 mL) to precipitate proteins, vortexed and centrifuged (2,000 rpm, 15 minutes). Aliquots of the supernatant (500 μL) were acidified to pH˜6 with 0.05 M TFA (2-8 μL). The excess of MeCN was evaporated with a stream of nitrogen and 100 μL water added. This mixture was passed through a 0.2-μm filter and samples (˜100 μL, 62.5 kBq-130 kBq) were injected on HPLC system.
The HPLC analyses proceeded on Luna C N (5μ, 4.6×250 mm) column. Eluent: solvent A potassium phosphate buffer (10 mM, pH 6.1), solvent B EtOH; all samples were eluted at 0.8 mL/minute, initially with a gradient of EtOH from 30% to 70% for 30 minutes, then from 70% to 95% over the next 15 minutes with detection of radioactivity and UV at 280 nm.

With `COC(=O)Nc1nc2ccc(C(=O)c3ccccc3)cc2[nH]1` [Compound 1, methyl N-(6-benzoyl-1H-benzimidazol-2-yl)carbamate], the “GI50, concentration to inhibit growth of cancer cells by 50%” value in series [1] is given as “nanomolar levels”.

As to `COC(=O)Nc1nc2cc(C(=O)c3cccc([131I])c3)ccc2[nH]1` [^125I-4, Methyl N-[5-(3′-[^125/131I]iodobenzoyl)-1H-benzimidazol-2-yl]carbamate], the “stability in human serum, radioactive HPLC trace” value is listed as “exclusively non-degraded” in series [2] (5 hours, 20° C.) and “exclusively non-degraded” in series [2] (17 hours, 37° C.). For the same molecule, the “stability in human serum” value in series [2] (up to 19 hours) was “stable”.

The record behind these values is patent US11607464B2, “Compositions and methods for the treatment and imaging of cancer” (BOARD OF REGENTS OF THE UNIVERSITY OF NEBRASKA, priority 2018, dated 2023).
